# Assay results reported in paper PMC3761409 (Journal of molecular recognition : JMR, 2013).
# No end group written: not given here.
# B1: full-length Bad: full-length Bad protein (Bcl2-associated death promoter) (protein, UniProt Q92934 1-168, looked up)
# chain: MFQIPEFEPSEQEDSSSAERGLGPSPAGDGPSGSGKHHRQAPGLLWDASHQQEQPTSSSHHGGAGAVEIRSRHSSYPAGTEDDEGMGEEPSPFRGRSRSAPPNLWAAQRYGRELRRMSDEFVDSFKKGLPRPKSAGTATQMRQSSSWTRVFQSWWDRNLGRGSSAPSQ
# modifications: full-length
# What was measured:
# [1] = molecular target: T1, Human Bcl2 (residues 1-205) (Homo sapiens, UniProt P10415); assay: Isothermal titration calorimetry; assay type: binding; conditions: for Kd: SD
# T1 sequence (P10415 1-205): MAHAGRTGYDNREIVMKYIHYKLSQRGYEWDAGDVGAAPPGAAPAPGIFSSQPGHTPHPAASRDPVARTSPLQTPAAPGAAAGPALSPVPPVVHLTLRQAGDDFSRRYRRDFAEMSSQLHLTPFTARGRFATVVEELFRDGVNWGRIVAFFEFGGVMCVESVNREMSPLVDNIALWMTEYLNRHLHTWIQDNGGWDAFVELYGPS
# [2] = molecular target: T1, Human Bcl2 (residues 1-205); assay: ITC: effect of NaCl concentration on binding; conditions: Sodium phosphate buffer, NaCl 0-500mM, 25°C, pH 7
# Bcl2 = Bcl2 (Homo sapiens, UniProt P10415); assay: In vitro binding of full-length Bad to Bcl2; conditions: unpublished observations
# Bcl2, sequence (P10415 whole entry): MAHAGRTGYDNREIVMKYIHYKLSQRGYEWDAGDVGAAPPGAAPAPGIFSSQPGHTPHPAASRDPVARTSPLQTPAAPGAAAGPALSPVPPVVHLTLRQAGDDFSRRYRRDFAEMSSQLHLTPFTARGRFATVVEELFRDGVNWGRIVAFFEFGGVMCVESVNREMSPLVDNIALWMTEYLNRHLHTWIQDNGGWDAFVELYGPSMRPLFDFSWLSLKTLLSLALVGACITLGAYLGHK
# BclXL = BclXL (Homo sapiens, UniProt Q07817); assay: In vitro binding of full-length Bad to BclXL; conditions: unpublished observations
# BclXL, sequence (Q07817 whole entry, species assumed): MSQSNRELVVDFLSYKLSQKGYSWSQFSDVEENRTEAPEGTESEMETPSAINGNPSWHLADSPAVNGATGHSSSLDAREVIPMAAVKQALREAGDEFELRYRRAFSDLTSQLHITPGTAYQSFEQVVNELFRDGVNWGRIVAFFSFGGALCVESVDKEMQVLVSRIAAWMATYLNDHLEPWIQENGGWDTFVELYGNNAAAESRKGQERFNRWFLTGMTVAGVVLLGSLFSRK
Molecule,Kd [1] [µM],effect of increasing NaCl concentration on the binding (Kd) to Bcl2 [2],"binding to Bcl2 under varied conditions ([1]; ITC, temperature, buffer or solution pH varied)",affinity of the full-length protein toward Bcl2 (Bcl2),affinity of the full-length protein toward BclXL (BclXL)
CC[C@H](C)[C@H](NC(=O)[C@H](C)NC(=O)[C@H](CC(C)C)NC(=O)[C@H](CCC(N)=O)NC(=O)[C@H](CCCNC(=N)N)NC(=O)CNC(=O)[C@@H](NC(=O)[C@H](CCC(N)=O)NC(=O)CNC(=O)[C@H](CCSC)NC(=O)[C@@H](NC(=O)[C@@H](N)CO)[C@@H](C)O)C(C)C)C(=O)N[C@H](C(=O)NCC(=O)N[C@@H](CC(=O)O)C(=O)N[C@@H](CC(=O)O)C(=O)N[C@H](C(=O)N[C@@H](CC(N)=O)C(=O)N[C@@H](CCCNC(=N)N)C(=O)N[C@@H](CCCNC(=N)N)C(=O)O)[C@@H](C)CC)[C@@H](C)CC [Bak],1.3 ± 0.25,largely independent of salt concentration,–,–,–
CC(C)C[C@H](NC(=O)[C@H](C)NC(=O)[C@H](CCCCN)NC(=O)[C@H](CC(C)C)NC(=O)[C@H](CCCNC(=N)N)NC(=O)[C@H](C)NC(=O)[C@H](C)NC(=O)[C@@H](NC(=O)[C@H](CC(C)C)NC(=O)[C@H](CCC(N)=O)NC(=O)[C@H](C)NC(=O)[C@H](C)NC(=O)[C@@H](N)CO)[C@@H](C)O)C(=O)NCC(=O)N[C@@H](CC(=O)O)C(=O)N[C@@H](CCC(=O)O)C(=O)N[C@@H](CC(C)C)C(=O)N[C@@H](Cc1c[nH]cn1)C(=O)N[C@@H](CCC(N)=O)C(=O)N[C@@H](CCCNC(=N)N)C(=O)O [Hrk],25 ± 8.8,enhancement of between two-to-five folds,–,–,–
ASTKKLSESLKRIGDELDSN [Bax],3.1 ± 0.66,enhancement of between two-to-five folds,–,–,–
DIIRNIARHLAQVGDSMDRS [Bid],2.1 ± 0.41,largely independent of salt concentration,–,–,–
EGSDALALRLACIGDEMDVS [Bik],3.78 ± 0.79,enhancement of between two-to-five folds,–,–,–
ELEVECATQLRRFGDKLNFR [Noxa],–,–,did not observe the binding,–,–
QAEVQIARKLQCIADQFHRL [Bmf],0.3 ± 0.07,little or negligible effect,–,–,–
QWAREIGAQLRRMADDLNAQ [Puma],0.37 ± 0.07,little or negligible effect,–,–,–
QWAREIGAQLRRMGDDLNAQ [Puma_A+4G],2.12 ± 0.42,–,–,–,–
SAAQLTAARLKALADELHQR [Hrk_G+4A],3.84 ± 0.71,–,–,–,–
WAAQRYGRELRRMSDEFVDS [Bad],4.14 ± 0.8,enhancement of between two-to-five folds,–,–,–
B1,–,–,–,poor affinity,poor affinity
